Data set [1] in a line: Reaction with superoxide, spin trap DMPO / EPR. It is filed as biochemical. Here is the method:
The reaction of cobinamide with O2·^− was studied in two different systems, generating O2·^− using a hypoxanthine-xanthine oxidase system.
The second system contained 1 mM hypoxanthine, 0.04 U xanthine oxidase, and 0.26 M DMPO in phosphate-buffered saline, pH 7.4 (PBS). Samples were transferred to a capillary tube, and introduced into the EPR cavity of a Magnettech MiniScope MS5000. DMPO-OH signals arising from the DMPO-OOH spin adduct were measured at 37° C. for 5 min. The area under the DMPO-OOH peak was calculated using Origin 2022b software. To avoid variability across runs, signal amplitudes were normalized to the intensity of simultaneously recorded Mn reference signals originating from ZnS:Mn^2+ fixed within the EPR cavity.
In both systems, the experiments were conducted in the absence and presence of the indicated concentrations of Cbi(III) or Chi(II) 65.
The reaction of Chi(III) with O2·^− was also measured using the spin-trap DMPO, which yields a distinctive electron paramagnetic resonance (EPR) spectrum on reacting with O2·^−. Sub-micromolar concentrations of cobinamide reduced the EPR signal in a dose-dependent fashion, yielding an apparent rate constant of 7.5×10^7 M^−1 s^−1 for the reaction of Chi(III) with O2·^− (FIG. 1B).

In another data set the test system is COS-7 cells. How it is done:
FIGS. 3A-3H. […] FIGS. 3A-3B. […] FIG. 3A. […] FIG. 3B. […] FIGS. 3C-3D. […] FIG. 3D. […] FIGS. 3E-3F. […] FIG. 3E. Representative blots are shown. […] FIG. 3F. […] FIG. 3G. […] FIG. 3H.
Finally, whether cobinamide could alleviate the effects of oxidative stress induced by yet another mechanism in a different cell type was tested using paraquat-treated COS-7 cells. Paraquat generates O2·^− through a redox cycling mechanism and increases both intracellular O2·^− and H2O2^42.

The subject of another data set is hearts of diabetic mice. The data set is described as follows: Lipid and protein oxidation and DNA damage in hearts of diabetic mice. It is filed as in vivo. How it is done: FIGS. 4A-4K. Cobinamide Rescues Flies from Paraquat Poisoning and Prevents Abnormal Lipid and Protein Oxidation, DNA Damage, and Fibrosis in the Hearts of Diabetic Mice. FIG. 4A. At time zero, 10 fruit flies (D. melanogaster) were transferred to vials with food to which either phosphate-buffered saline (PBS), 0.8 mM of the indicated drugs, 20 mM paraquat (PQ), or 20 mM paraquat with 0.8 mM of the indicated drugs had been added. The number of live flies was counted each day for 7 d. The experiment was repeated seven times, for a total of 70 flies per condition. The percent surviving flies was calculated; error bars represent standard deviations and are shown in one direction only for sake of clarity. FIGS. 4B-4K. […] The amount of 8-isoprostane (FIG. 4B) was measured by ELISA, protein oxidation (FIGS. 4C-4D) was assessed by immunoblotting, and nitrotyrosine content (FIGS. 4E-4F) was assessed by immunohistochemistry. DNA damage was assessed by 8-OH-deoxyguanosine staining (FIGS. 4G-4H) and a long amplicon qPCR-based assay (FIG. 4I). Cardiac fibrosis (FIGS. 4J-4K) was assessed by Mallory trichrome staining, which stains collagen blue. […] For Panels C, D, and I, frozen heart samples were selected randomly from each of the four groups and were analyzed. For Panel D, blots were analyzed by densitometric scanning using Li-Cor Odyssey software, with the density of each lane normalized to the actin band. […]

For data set [2] the following is noted: mouse, in vivo.
Method: Male C57BL/6NHsd mice (20 weeks old) were housed three to four animals per cage in a temperature-controlled environment with a 12-h light/dark cycle and fed standard rodent chow with ad libitum access to food and water. After one week of acclimatization, mice weighing 30±3 g were injected intraperitoneally for five consecutive days with either saline (n=20) or 50 mg/kg streptozotocin (n=20) 69. […] The 16 diabetic mice and a corresponding number of the saline-injected, non-diabetic mice were split randomly in half to receive either plain drinking water or histidyl-cobinamide in the drinking water. The four groups of animals are referred to as: diabetic vehicle (D-Veh); diabetic, cobinamide-treated (D-Cbi); non-diabetic, vehicle (ND-Veh); and non-diabetic, cobinamide-treated (ND-Cbi). The histidyl-cobinamide concentration was 1 mM for the ND-Cbi mice, but because the diabetic mice drank more than the non-diabetic mice, the cobinamide concentration for the D-Cbi mice was decreased accordingly. The water was replenished twice a week.
After three months of treatment, the mice were weighed, fasted for 6 h, and then underwent an intraperitoneal glucose tolerance test (IPGTT) using 2 g/kg of a 20% glucose solution. Blood glucose concentrations were measured just before the glucose injection (time 0, fasting specimen) and at 15, 30, 60, and 120 min following the injection. […] Two days later, the mice were euthanized by inducing deep anesthesia with 200 mg/kg ketamine and 40 mg/kg xylazine administered by intraperitoneal injection, followed by exsanguination via an open cardiac puncture.
Type I diabetic mice were generated using streptozotocin, and then provided cobinamide in the drinking water for three months.
The conditions of data set [3]: physiological conditions; 50 mM potassium phosphate pH 7.4, three-fold molar excess of reductant.
Method: H9c2 cells were incubated for 30 min with vehicle, 2.5 μM cobinamide, or 5 μM rotenone, the latter in the absence or presence of 2.5 μM cobinamide, imisopasem, MnTBAP, or cobalamin; 5 μM MitoSOX was added during the last 10 min. The cells were incubated with 1 mg/ml DAPI for 3 min to counterstain nuclei, and then visualized under a fluorescence microscope. […] Equal-sized representative areas for each condition are shown for MitoSOX staining (red fluorescence) and the same area showing merged MitoSOX and DAPI staining. […] The amount of red fluorescence was quantified by Image J analysis. Data are the mean±SD of three independent experiments; in each experiment two separate equal-sized areas were analyzed containing ˜75 cells per area. […] H9c2 cells were incubated for 10 min with 10 μM JC-1, washed once with PBS, and then incubated for 30 min with vehicle, 2.5 μM cobinamide, or 5 μM rotenone in the absence or presence of 2.5 μM of the indicated drugs as described in Panels A, B. FIG. 3C. Cells were visualized under a fluorescence microscope and equal-sized representative areas of each condition are shown, with red and green fluorescence shown for the same area. […] The amount of red and green fluorescence was quantified by Image J analysis and the red to green ratio was calculated. The slides were analyzed by an operator who was blinded to the specific conditions. Data are the mean±SD of three independent experiments; in each experiment two separate equal-sized areas were analyzed containing ˜75 cells per area. […] Blots from four independent experiments were analyzed by densitometric scanning (Li-Cor Odyssey software) in a range where band intensity was linear. The ratio of the pJNK band to GAPDH was calculated, and the results normalized to control untreated cells. […] The UV-visible spectrum of Chi(III) in 50 mM potassium phosphate buffer, pH 7.4 was recorded before (black line) and immediately after adding a three-fold molar excess of ascorbate (blue line), cysteine (teal line), or reduced glutathione (GSH, pink line). […]

Turning to `C/C1=C2/[N-][C@H]([C@H](CC(N)=O)[C@@]2(C)CCC(=O)NC[C@@H](C)O)[C@]2(C)N=C(/C(C)=C3N=C(/C=C4N=C1[C@@H](CCC(N)=O)C\4(C)C)[C@@H](CCC(N)=O)[C@]\3(C)CC(N)=O)[C@@H](CCC(N)=O)[C@]2(C)CC(N)=O.[Co+3]` [cobinamide, aquohydroxo-cobinamide], in data set [1], the “Apparent rate constant, reaction with O2·^−” value was 7.5e+07 M⁻¹ s⁻¹. In addition, the “Cell growth of paraquat-treated cells” value in the data set on COS-7 cells (COS-7, 1 mM paraquat 3 h, 100 μM drug, counted 48 h later) is ~80 % of the control value. For the same compound, the “Effect on cell growth, drug alone” value in the data set with COS-7 cells (COS-7, no paraquat) was “no effect on cell growth”. Besides, the “All markers of oxidative stress and DNA damage in hearts of diabetic mice” value in the data set on hearts of diabetic mice (8-isoprostane, protein carbonylation, nitrotyrosine, 8-OH-deoxyguanosine, long-amplicon PCR, three months histidyl-cobinamide in drinking water) was “significantly reduced all markers of oxidative stress and DNA damage to values similar to those found in the non-diabetic mice”. Further, in the data set on hearts of diabetic mice (nitrotyrosine immunohistochemistry), the “Tyrosine nitration in hearts of diabetic mice” value is reported as “reduced”. Also, in data set [2], the “Plasma cobinamide concentration, diabetic mice” value is 0.55 ± 0.36 µM and the “Plasma cobinamide concentration, non-diabetic mice” value was determined as 0.11 ± 0.07 µM. The “Reduction by ascorbate, cysteine and reduced glutathione (GSH)” value in data set [3] is “readily reduced to Cbi(II)”.

These data come from US20260069606A1, “Oxidative Stress and Diabetes Treatment with Cobinamide” (The Regents of the University of California, priority 2022, published 2026).
